Reference: patent US9725414B2, “Fungicidal N-bicycloalkyl and N-tricycloalkyl pyrazole-4-(thio)carboxamide derivatives” (priority 2011, dated 2017)
Read-outs that look alike come from different tables or passages of the source.

Key:
[1] = tested on: Alternaria solani; assay: Example C: in vivo preventive test on Alternaria solani (tomato); details: 500 ppm of active ingredient, evaluated 7 days after inoculation
Method: (§1) In Vivo Preventive Test on Alternaria solani (Tomato) Solvent: 49 parts by weight of N,N-dimethylformamide Emulsifier: 1 part by weight of alkylarylpolyglycolether To produce a suitable preparation of active compound, 1 part by weight of active compound is mixed with the stated amounts of solvent and emulsifier, and the concentrate is diluted with water to the desired concentration. To test for preventive activity, young plants are sprayed with the preparation of active compound at the stated rate of application. One day after this treatment, the plants are inoculated with an aqueous spore suspension of Alternaria solani. The plants remain for one day in an incubation cabinet at approximately 22° C. and a relative atmospheric humidity of 100%. Then the plants are placed in an incubation cabinet at approximately 20° C. and a relative atmospheric humidity of 96%.

[2] = tested on: Pyrenophora teres; assay: Example E: in vivo preventive test on Pyrenophora teres (barley), DMF/emulsifier preparation; details: 500 ppm of active ingredient, evaluated 7-9 days after inoculation
Method: as §1, with “Pyrenophora teres (Barley)” for “Alternaria solani (Tomato)”, “alkylaryl polyglycol ether” for “alkylarylpolyglycolether”, “Pyrenophora teres.” for “Alternaria solani.”, “48 hours” for “one day”, “at” for “at approximately”, “100%.” for “100%. Then the plants are placed in an incubation cabinet at approximately 20° C. and a relative atmospheric humidity of 96%.”

[3] = tested on: Puccinia recondita; assay: Example M: in vivo preventive test on Puccinia recondita (brown rust on wheat); details: 500 ppm of active ingredient, grading 12 days after contamination
Method: In Vivo Preventive Test on Puccinia recondita (Brown Rust on Wheat) […] Wheat plants (“Scipion” variety), sown in starter cups on a 50/50 peat soil pozzolana substrate and grown at 22° C., are treated at the 1 leaf stage (10 cm height) by spraying with the active ingredient prepared as described above. Plants, used as controls, are treated with the mixture of acetone/tween/DMSO/water not containing the active material. After 24 hours, the plants are contaminated by spraying the leaves with an aqueous suspension of Puccinia recondite spores (100 000 spores per mL). The spores are collected from an infected plant and are suspended in water containing 2.5 mL/L of Tween 80 at 10%. […] Grading (% of efficacy) is carried out 12 days after the contamination, in comparison with the control plants.

[4] = tested on: Uromyces appendiculatus; assay: Example Q: in vivo preventive test on Uromyces appendiculatus (bean rust); details: Uromyces appendiculatus on bean plants, 500 ppm of active ingredient, grading 11 days after contamination
Method: In Vivo Preventive Test on Uromyces appendiculatus (Bean Rust) […] Bean plants (“Saxa” variety), sown in starter cups on a 50/50 peat soil pozzolana substrate and grown at 24° C., are treated at the 2 leaf stage (9 cm height) by spraying with the active ingredient prepared as described above. Plants, used as controls, are treated with the mixture of acetone/tween/DMSO/water not containing the active material. After 24 hours, the plants are contaminated by spraying the leaves with an aqueous suspension of Uromyces appendiculatus spores (150 000 spores per mL). The spores are collected from infected plants and are suspended in water containing 2.5 mL/L of Tween 80 at 10%. […] Grading (% of efficacy) is carried out 11 days after the contamination, in comparison with the control plants.

[5] = tested on: Sphaerotheca fuliginea; assay: Example B: in vivo preventive test on Sphaerotheca fuliginea (powdery mildew on cucurbits), gherkin plants; details: 500 ppm of active ingredient, grading 12 days after contamination
Method: In Vivo Preventive Test on Sphaerotheca fuliginea (Powdery Mildew on Cucurbits) […] Gherkin plants (“Vert petit de Paris” variety), sown in starter cups on a 50/50 peat soil-pozzolana substrate and grown at 24° C. are treated at the Z11 cotyledon stage by spraying with the active ingredient prepared as described above. Plants, used as controls, are treated with the mixture of acetone/tween/DMSO/water not containing the active material. After 24 hours, the plants are contaminated by spraying the cotyledons with an aqueous suspension of Sphaerotheca fuliginea spores (100 000 spores per mL). The spores are collected from infected plants.

[6] = tested on: Pyrenophora teres; assay: Example F: in vivo preventive test on Pyrenophora teres (barley), acetone/tween/DMSO preparation; details: grading 14 days after contamination
Method: In Vivo Preventive Test on Pyrenophora teres (Barley) […] Barley plants (“Plaisant” variety), sown in starter cups on a 50/50 peat soil pozzolana substrate and grown at 22° C., are treated at the 1 leaf stage (10 cm height) by spraying with the active ingredient prepared as described above. Plants, used as controls, are treated with the mixture of acetone/tween/DMSO/water not containing the active material. After 24 hours, the plants are contaminated by spraying the leaves with an aqueous suspension of Pyrenophora teres spores (12 000 spores per mL). The spores are collected from a 12-day-old culture. […] Grading (% of efficacy) is carried out 14 days after the contamination, in comparison with the control plants.

[7] = tested on: Septoria tritici; assay: Example I: in vivo preventive test on Septoria tritici (wheat), acetone/tween/DMSO preparation; details: 500 ppm of active ingredient, grading 24 days after contamination
Method: In Vivo Preventive Test on Septoria tritici (Wheat) […] Wheat plants (“Scipion” variety), sown in starter cups on a 50/50 peat soil pozzolana substrate and grown at 22° C., are treated at the 1 leaf stage (10 cm height) by spraying with the active ingredient prepared as described above. Plants, used as controls, are treated with the mixture of acetone/tween/DMSO/water not containing the active material. After 24 hours, the plants are contaminated by spraying the leaves with an aqueous suspension of cryopreserved Septoria tritici spores (500 000 spores per mL). The contaminated wheat plants are incubated for 72 hours at 18° C. and at 100% relative humidity, and then for 21 days at 90% relative humidity. Grading (% of efficacy) is carried out 24 days after the contamination, in comparison with the control plants.

[8] = tested on: Alternaria brassicae; assay: Example D: in vivo preventive test on Alternaria brassicae (leaf spot on radish); details: 100 ppm of active ingredient, grading 6 days after contamination
Method: In Vivo Preventive Test on Alternaria brassicae (Leaf Spot on Radish) […] Radish plants (“Pernod Clair” variety), sown in starter cups on a 50/50 peat soil pozzolana substrate and grown at 17° C., are treated at the cotyledon stage by spraying with the active ingredient prepared as described above. Plants, used as controls, are treated with the mixture of acetone/tween/DMSO/water not containing the active material. After 24 hours, the plants are contaminated by spraying the cotyledons with an aqueous suspension of Alternaria brassicae spores (50 000 spores per mL). The spores are collected from a 15-day-old culture. The contaminated radish plants are incubated at 20° C. and at 100% relative humidity. Grading (% of efficacy) is carried out 6 days after the contamination, in comparison with the control plants.

[9] = log P by HPLC on reversed-phase column (C 18), EEC Directive 79831 Annex V.A8; assay type: physicochemical
Method: In table 1, the log P values were determined in accordance with EEC Directive 79831 Annex V.A8 by HPLC (High Performance Liquid Chromatography) on a reversed-phase column (C 18), using the method described below: Temperature: 40° C.; Mobile phases: 0.1% aqueous formic acid and acetonitrile; linear gradient from 10% acetonitrile to 90% acetonitrile. Calibration was carried out using unbranched alkan-2-ones (comprising 3 to 16 carbon atoms) with known log P values (determination of the log P values by the retention times using linear interpolation between two successive alkanones). lambda-max-values were determined using UV-spectra from 200 nm to 400 nm and the peak values of the chromatographic signals.

[10] = tested on: Botrytis cinerea; assay: Example P: in vivo preventive test on Botrytis cinerea (grey mould), gherkin plants; details: 500 ppm of active ingredient, grading 4 to 5 days after contamination
Method: In Vivo Preventive Test on Botrytis cinerea (Grey Mould) […] Gherkin plants (“Vert petit de Paris” variety), sown in starter cups on a 50/50 peat soil pozzolana substrate and grown at 24° C. are treated at the Z11 cotyledon stage by spraying with the active ingredient prepared as described above. Plants, used as controls, are treated with the mixture of acetone/tween/DMSO/water not containing the active material. After 24 hours, the plants are contaminated by spraying the cotyledons with an aqueous suspension of cryopreserved Botrytis cinerea spores (50 000 spores per mL). The spores are suspended in a nutrient solution composed of 10 g/L of PDB, 50 g/L of D-Fructose, 2 g/L of NH4NO3 and 1 g/L of KH2PO4. The contaminated gherkin plants are incubated at 17° C. and at 90% relative humidity. Grading (% of efficacy) is carried out 4 to 5 days after the contamination, in comparison with the control plants.

[11] = 500 ppm of active ingredient, barley
[12] = Pyrenophora teres on barley, 100 ppm of active ingredient
[13] = HPLC reversed-phase C 18, 40° C., 0.1% aqueous formic acid and acetonitrile gradient, several values = mixture of two or more isomers

logP [9, 13]	logP [9]	SMILES	Efficacy [3]	Efficacy [4]	Efficacy [6, 11]	Efficacy [7]	Efficacy [10]	further results
–	–	Cn1nc(C(F)F)c(C(=O)N(C2CC2)C2CCC3CCCC3C2)c1Cl (mixture of isomers) [Example 21]	94%	98%	–	–	–	Efficacy [1]: 90%; Efficacy [2]: 100%
–	–	Cn1nc(C(F)F)c(C(=O)N(C2CC2)C2CCC3CCCCC3C2)c1F (mixture of isomers) [Example 38]	100%	100%	100%	96%	–	Efficacy [5]: 93%; Efficacy [1]: 95%; Efficacy [2]: 100%
–	–	Cn1nc(C(F)F)c(C(=O)N(CC2CCCC3CCCC32)C2CC2)c1F (mixture of isomers) [Example 60]	–	–	–	–	–	Efficacy [8]: 100%; Efficacy [6, 12]: 98%
–	–	Cn1cc(C(=O)N(CC2CCCC3CCCC32)C2CC2)c(C(F)F)n1 (mixture of isomers) [Example 61]	–	–	–	–	–	Efficacy [8]: 92%; Efficacy [6, 12]: 100%
2.51	–	Cn1cc(C(=O)NC2CCC3CCCC32)c(C(F)F)n1 (stereo not shown) [Example 1]	94%	95%	–	80%	–	–
–	3.35	CN(C(=O)c1c(C(F)F)nn(C)c1F)C1CCC2CCCCC21 (stereo not shown) [Example 8]	–	–	–	–	–	Efficacy [8]: 100%; Efficacy [6, 12]: 98%
–	2.88	CN(C(=O)c1cn(C)nc1C(F)F)C1CCC2CCCCC21 (stereo not shown) [Example 9]	–	–	–	–	–	Efficacy [8]: 100%; Efficacy [6, 12]: 75%
3.61	–	Cn1cc(C(=O)N(C2CC2)C2CC3CCCCC3C2)c(C(F)F)n1 (stereo not shown) [Example 13]	–	91%	97%	90%	100%	Efficacy [5]: 80%
2.14	–	Cn1cc(C(=O)NC2CC3CCC2C3)c(C(F)F)n1 (stereo not shown) [Example 46]	–	85%	–	75%	88%	–
2.64	–	Cn1nc(C(F)F)c(C(=O)NC2CC3CCC2C3)c1Cl (stereo not shown) [Example 47]	–	83%	88%	83%	97%	–
2.46	–	Cn1nc(C(F)F)c(C(=O)NC2CC3CCC2C3)c1F (stereo not shown) [Example 48]	75%	87%	88%	83%	83%	–
–	3.79	CC1C(NC(=O)c2c(C(F)F)nn(C)c2Cl)CC2CC1C2(C)C (stereo not shown) [Example 51]	–	–	–	–	95%	–
–	3.19	CC1C(NC(=O)c2cn(C)nc2C(F)F)CC2CC1C2(C)C (stereo not shown) [Example 52]	–	–	–	–	80%	–
3.79	–	CC1C(NC(=O)c2c(C(F)F)nn(C)c2Cl)CC2CC1C2(C)C (stereo not shown) [Example 53]	–	–	75%	83%	99%	–
–	3.19	CC1C(NC(=O)c2cn(C)nc2C(F)F)CC2CC1C2(C)C (stereo not shown) [Example 54]	–	–	–	–	85%	–
–	3.57	Cn1nc(C(F)F)c(C(=O)NC23CC4CC(CC(C4)C2)C3)c1F [Example 56]	–	–	–	83%	100%	–
–	3.81	Cn1nc(C(F)F)c(C(=O)NC23CC4CC(CC(C4)C2)C3)c1Cl [Example 57]	–	–	–	75%	75%	–
3.50	–	Cn1cc(C(=O)N(CC2CCC3CCCC32)C2CC2)c(C(F)F)n1 (stereo not shown) [Example 59]	89%	75%	100%	–	100%	Efficacy [5]: 100%
3.92	–	Cn1cc(C(=O)N(CC2CCC3CCCC3C2)C2CC2)c(C(F)F)n1 (stereo not shown) [Example 63]	81%	–	79%	97%	85%	Efficacy [5]: 100%
–	3.23	Cn1nc(C(F)F)c(C(=O)N(CC2CC3C=CC2C3)C2CC2)c1F (stereo not shown) [Example 73]	–	–	100%	–	93%	–
3.67	–	CON(C(=O)c1c(C(F)F)nn(C)c1F)C(C)C1CC2CCC1C2 (stereo not shown) [Example 99]	95%	–	100%	–	100%	Efficacy [5]: 100%
3.42	–	CON(C(=O)c1cn(C)nc1C(F)F)C(C)C1CC2CCC1C2 (stereo not shown) [Example 100]	90%	100%	100%	–	100%	Efficacy [5]: 100%
